Test results published in paper PMC10298530, “Synthesis and Anticancer Activity of A-Ring-Modified Derivatives of Dihydrobetulin” (International Journal of Molecular Sciences, 2023).

Assays:
RD TE32 = assay: MTT cell viability assay, RD TE32; type: cell-based, human; conditions: Homo sapiens; Table S1, RD TE32; read-out: IC50 (mean ± SD)
Source text: (§1) Blokhin National Medical Research Center of Oncology (the Ministry of Health of the Russian Federation, Moscow).

HEpG2 = assay: MTT cell viability assay, HEpG2; type: cell-based, human; conditions: Homo sapiens; Table S1, HEpG2; read-out: IC50 (mean ± SD)
Source text: as §1

A549 = assay: MTT cell viability assay, A549; type: cell-based, human; conditions: Homo sapiens; Table S1, A549; read-out: IC50 (mean ± SD)
Source text: as §1

HCT116 = assay: MTT cell viability assay, HCT116; type: cell-based, human; conditions: Homo sapiens, HCT-116; Table S1, HCT116; read-out: IC50 (mean ± SD)
Source text: as §1

MS = assay: MTT cell viability assay, MS; type: cell-based, human; conditions: Homo sapiens; Table S1, MS; read-out: IC50 (mean ± SD);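 further: MS is a melanocyte cell line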
Source text: as §1

MCF-7 = assay: MTT cell viability assay, MCF-7; type: cell-based, human; conditions: Homo sapiens, MCF7; Table S1, MCF-7; read-out: IC50 (mean ± SD)
Source text: as §1

PC-3 = assay: MTT cell viability assay, PC-3; type: cell-based, human; conditions: Homo sapiens; Table S1, PC-3; read-out: IC50 (mean ± SD)
Source text: as §1

HBL-100 = assay: MTT cell viability assay, HBL-100; type: cell-based, human; conditions: Homo sapiens; Table S1, HBL-100; read-out: IC50 (mean ± SD)
Protocol: (§2) The cells were cultured in a humidified CO2 incubator (model 460-CE; Thermo Fisher Scientific, Waltham, MA, USA) at +37 °C and 5% CO2.
(§3) The percentage of the viable cells was calculated according to the following equation: cell viability (%) = 100 × (mean absorbance in the treatment group/mean absorbance in the control group). The results were expressed pictorially using Prism 6.0 (GraphPad Software, Boston, MA, USA).

HEK293 = assay: MTT cell viability assay, HEK293; type: cell-based; conditions: Homo sapiens; Table S1, HEK293; read-out: IC50 (mean ± SD)
Source text: as §1

HBL-100/Dox = assay: MTT cell viability assay, HBL-100/Dox; type: cell-based, human; conditions: Homo sapiens, HBL-100; read-out: IC50 (mean ± SD)
Protocol: as §2, §3

SMILES | IC50 (RD TE32) | IC50 (HEpG2) | IC50 (A549) | IC50 (HCT116) | IC50 (MS) | IC50 (MCF-7) | IC50 (PC-3) | IC50 (HBL-100) | IC50 (HEK293) | IC50 (HBL-100/Dox) | melting point
C=C1C2CC[C@]3(C)C(CCC4C5C(C(C)C)CC[C@]5(CO)CC[C@]43C)[C@@]2(C)C[C@@H](C#N)[C@@H]1O (stereo partly drawn) [compound 9, 2-Cyano-24β,28-dihydroxy-3,4-seco-3-nor-2,24-cyclolup-4(23)-ene] | > 100 µM | > 100 µM | > 100 µM | > 100 µM | > 100 µM | > 200 µM | > 100 µM | > 200 µM | > 100 µM | > 100 µM | 170.1 °C
CC1=C(C#N)C[C@@]2(C)C1CC[C@]1(C)C2CCC2C3C(C(C)C)CC[C@]3(CO)CC[C@]21C (some centres unmarked) [compound 22, 2-Cyano-28-hydroxy-3,4-seco-3,23-dinor-2,4-cyclolup-2(4)-ene] | 84.7 ± 3.68 µM | > 100 µM | > 200 µM | 74.2 ± 2.56 µM | > 100 µM | 89.3 ± 3.01 µM | 36.5 ± 1.31 µM | > 100 µM | > 100 µM | > 100 µM | 184.2 °C
C=C1C2CC[C@]3(C)C(CCC4C5C(C(C)C)CC[C@]5(C(=O)OC)CC[C@]43C)[C@@]2(C)C[C@@H](C#N)[C@@H]1O (stereo partly drawn) [compound 11, 2-Cyano-24β-hydroxy-3,4-seco-3-nor-2,24-cyclolup-4(23)-en-28-oic acid methyl ester] | > 200 µM | > 100 µM | > 100 µM | > 200 µM | > 100 µM | > 100 µM | > 100 µM | 73.3 ± 1.51 µM | > 200 µM | > 200 µM | 133.9 °C
CC(C)C1CC[C@]2(CO)CC[C@]3(C)C(CCC4[C@@]5(C)C[C@@H](C#N)C[C@H](O)C5CC[C@]43C)C12 (stereo partly drawn) [compound 18, 2-Cyano-4β,28-dihydroxy-3,4-seco-3,23-dinor-2,24-cyclolupane] | > 200 µM | > 100 µM | > 100 µM | > 200 µM | > 100 µM | > 100 µM | > 100 µM | > 100 µM | > 100 µM | > 200 µM | 205.7 °C
COC(=O)[C@]12CCC(C(C)C)C1C1CCC3[C@@](C)(CCC#N)C(C(C)=O)CC[C@@]3(C)[C@]1(C)CC2 (some centres unmarked) [compound 21, 2-Cyano-4-oxo-3,4-seco-3,23-dinorlupan-28-oic acid methyl ester] | > 100 µM | > 100 µM | > 100 µM | > 100 µM | > 100 µM | 97.5 ± 4.21 µM | > 100 µM | > 100 µM | > 100 µM | > 200 µM | 177.2 °C
C=C(CBr)C1CC[C@]2(C)C(CCC3C4C(C(C)C)CC[C@]4(C(=O)OC)CC[C@]32C)[C@@]1(C)CCC#N (some centres unmarked) [compound 7, 24-Bromo-2-cyano-3,4-seco-3-norlup-4(23)-en-28-oic acid methyl ester] | > 200 µM | > 100 µM | > 100 µM | > 200 µM | > 100 µM | > 100 µM | > 100 µM | > 200 µM | > 100 µM | > 200 µM | 72.7 °C
COC(=O)[C@]12CCC(C(C)C)C1C1CCC3[C@@]4(C)CC(C#N)=CC(=O)C4CC[C@@]3(C)[C@]1(C)CC2 (some centres unmarked) [compound 15, 2-Cyano-4-oxo-3,4-seco-3,23-dinor-2,24-cyclolup-2(24)-en-28-oic acid methyl ester] | > 100 µM | > 100 µM | > 100 µM | > 100 µM | > 100 µM | > 100 µM | > 100 µM | > 100 µM | > 100 µM | > 100 µM | 69.7 °C
